According to patent US20260028354A1, “TETRAHYDRONAPHTHALENE DERIVATIVES AS ESTROGEN RECEPTOR DEGRADERS” (REGENT OF THE UNIVERSITY OF MICHIGAN, priority 2022, published 2026):
Read-outs that look alike come from different tables or passages of the source.

Key:
CRBN/DDB1 = CRBN/DDB1 (Homo sapiens (Human), UniProt Q96SW2); assay type: binding; details: His tagged CRBN+DDB1, Cy5-labeled Thalidomide probe, one hour; read-out: CRBN HTRF IC50
Method: The binding potency was determined using HTRF assay technology (Perkin Elmer). Compounds were serially diluted in DMSO and […] volume was transferred to white 384-well plate.

ERα_LBD (GST) = ERα_LBD (GST) (Homo sapiens (Human), UniProt P03372); assay: IC50 measurements for binding to ERα_LBD (GST), LanthaScreen TR-FRET competitive binding; details: ERα_LBD (GST) 4 nM, Fluormone ES2 Green tracer, 60 min; read-out: ERα HTRF IC50
Sequence of ERα_LBD (GST) (P03372 311-547): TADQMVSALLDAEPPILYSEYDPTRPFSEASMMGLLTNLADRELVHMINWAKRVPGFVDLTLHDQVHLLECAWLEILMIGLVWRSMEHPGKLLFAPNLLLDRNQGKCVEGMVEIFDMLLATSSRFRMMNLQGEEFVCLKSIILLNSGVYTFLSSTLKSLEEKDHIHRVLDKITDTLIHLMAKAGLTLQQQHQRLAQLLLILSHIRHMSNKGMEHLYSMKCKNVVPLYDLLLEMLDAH
Method: In vitro Assay: IC50 Measurements for binding to ERα_LBD (GST) • Final assay conditions: • 1. ERα_LBD (GST) protein: 4 nM • 2. Tb Anti-GST: 2 nM • 3. Fluormone ES2 Green tracer: 3 nM • 4. Incubation time: 60 min • 5. DMSO: 1% • 6. Assay buffer: Adding 1M DTT to Nuclear receptor Buffer K for final 5 mM DTT. • 7. ZPE: 1% DMSO • 8. HPE: 1 μM ARV_471 (positive control) • 9. LanthaScreen® TR-FRET ERα Competitive Binding Assay (ThermoFisher, #A^15887) • 100× Compound preparation
1) Cherry pick 2 μL 10 mM compound stock to column 1 of a 384 intermediate plate. • 2) Add 18 μL DMSO to column 1 to dilute compound to 1 mM. • 3) Transfer 10 μL 1 mM compound to column 1 of a LDV plate. • 2) Add 6 μl DMSO to column 2-10 of the LDV plate. • 3) Compounds undergo 3-fold serial dilution (3 μL+6 μL) in DMSO. • 4) Transfer 120 nL compound solution to assay plate. ZPE: 120 nL 100% DMSO • Procedure:
Complete nuclear receptor buffer K was prepared by adding 1 M DTT to nuclear receptor buffer K for a final concentration of 5 mM DTT. Complete nuclear receptor buffer K must be prepared fresh daily, 2X protein solution was prepared using complete nuclear receptor buffer K containing 8 nM ERα_LBD (GST) and 4 nM Tb Anti-GST. Then, 2X Fluormone ES2 Green tracer (6 nM) was prepared using complete nuclear receptor buffer K. Add 6 μL 2X Fluormone ES2 green tracer into a compound plate (PerkinElmer 6008289) by dragonfly with one-tips-addition. Subsequently, 6 μL 2× protein solution was added into the plate. The 384-well plate was mixed on a plate shaker and incubated at room temperature protected from light for 60 min. The plate was scaled with a cover to minimize evaporation. The plate was read at wavelengths of 520 nm and 495 nm. The TR-FRET ratio was calculated by dividing the emission signal at 520 nm by the emission signal at 495 nm. A binding curve was generated by plotting the emission ratio vs, the log [ligand]. To determine the IC50 value, fit the data using XL-fit for a sigmoidal dose-response.

ER in MCF-7 cells = ER in MCF-7 cells (Homo sapiens (Human), UniProt P03372); assay: In-cell Western (ICW) ER degradation assay in MCF-7 cells; assay type: cell-based; details: for DC50: MCF-7, ER degradation, read-out: MCF7 DC50
Sequence of ER in MCF-7 cells (P03372 whole entry): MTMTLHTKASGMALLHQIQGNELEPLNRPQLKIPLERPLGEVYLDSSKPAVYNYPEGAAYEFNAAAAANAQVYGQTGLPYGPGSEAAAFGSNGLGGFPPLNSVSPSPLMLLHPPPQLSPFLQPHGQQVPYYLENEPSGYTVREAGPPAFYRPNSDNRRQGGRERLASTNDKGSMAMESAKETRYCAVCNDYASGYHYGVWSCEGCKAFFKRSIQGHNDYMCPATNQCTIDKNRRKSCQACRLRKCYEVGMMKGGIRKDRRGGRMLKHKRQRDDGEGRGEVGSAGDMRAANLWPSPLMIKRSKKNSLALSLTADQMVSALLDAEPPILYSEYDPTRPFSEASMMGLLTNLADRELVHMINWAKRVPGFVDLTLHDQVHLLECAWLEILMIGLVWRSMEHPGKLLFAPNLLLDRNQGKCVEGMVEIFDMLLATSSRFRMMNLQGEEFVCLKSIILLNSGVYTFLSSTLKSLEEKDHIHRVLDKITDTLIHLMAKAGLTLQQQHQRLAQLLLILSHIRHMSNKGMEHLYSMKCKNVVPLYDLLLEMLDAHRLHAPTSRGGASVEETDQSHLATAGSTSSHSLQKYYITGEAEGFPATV

ER in T47D cells = ER in T47D cells (Homo sapiens (Human), UniProt P03372); assay: In-cell Western (ICW) ER degradation assay in T47D cells; assay type: cell-based; details: for DC50: ER degradation
Sequence of ER in T47D cells (P03372 whole entry): as above

MCF-7 cells = assay: CellTiter-Glo (CTG) cell proliferation assay in MCF-7 cells; assay type: cell-based; details: MCF-7 cell proliferation
Source text: CellTiter-Glo® (CTG) Assays in MCF-7 and T47D Cell Lines.
In vitro Assay: MCF-7 and T47D CTG assay

[1] = MCF7, MCF-7, maximal ER degradation, 16 hrs treatment, read-out: MCF7 Dmax
[2] = maximal ER degradation, 16 hrs treatment, read-out: T47D Dmax
[3] = Homo sapiens, MCF7, 144 h, Day 6
[4] = MCF7, read-out: MCF7 Dmax, MCF-7, maximal ER degradation, 16 hrs treatment
[5] = read-out: T47D Dmax, T47D, maximal ER degradation, 16 hrs treatment

Sequence of CRBN/DDB1 (Q96SW2 whole entry, species assumed): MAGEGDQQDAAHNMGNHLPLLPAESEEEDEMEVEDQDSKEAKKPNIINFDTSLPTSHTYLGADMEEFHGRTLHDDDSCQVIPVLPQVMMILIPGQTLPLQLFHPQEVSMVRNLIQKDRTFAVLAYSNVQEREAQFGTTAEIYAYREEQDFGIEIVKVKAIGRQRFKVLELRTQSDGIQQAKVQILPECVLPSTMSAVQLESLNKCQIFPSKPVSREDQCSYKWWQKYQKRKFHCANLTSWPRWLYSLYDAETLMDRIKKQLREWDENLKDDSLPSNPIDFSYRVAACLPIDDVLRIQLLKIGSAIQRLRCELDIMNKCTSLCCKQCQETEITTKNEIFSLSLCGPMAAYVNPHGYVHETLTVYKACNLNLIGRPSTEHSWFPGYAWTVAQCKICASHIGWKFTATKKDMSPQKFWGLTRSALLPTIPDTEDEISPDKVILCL
Sequence of CRBN/DDB1 (Q16531 whole entry partner, species assumed): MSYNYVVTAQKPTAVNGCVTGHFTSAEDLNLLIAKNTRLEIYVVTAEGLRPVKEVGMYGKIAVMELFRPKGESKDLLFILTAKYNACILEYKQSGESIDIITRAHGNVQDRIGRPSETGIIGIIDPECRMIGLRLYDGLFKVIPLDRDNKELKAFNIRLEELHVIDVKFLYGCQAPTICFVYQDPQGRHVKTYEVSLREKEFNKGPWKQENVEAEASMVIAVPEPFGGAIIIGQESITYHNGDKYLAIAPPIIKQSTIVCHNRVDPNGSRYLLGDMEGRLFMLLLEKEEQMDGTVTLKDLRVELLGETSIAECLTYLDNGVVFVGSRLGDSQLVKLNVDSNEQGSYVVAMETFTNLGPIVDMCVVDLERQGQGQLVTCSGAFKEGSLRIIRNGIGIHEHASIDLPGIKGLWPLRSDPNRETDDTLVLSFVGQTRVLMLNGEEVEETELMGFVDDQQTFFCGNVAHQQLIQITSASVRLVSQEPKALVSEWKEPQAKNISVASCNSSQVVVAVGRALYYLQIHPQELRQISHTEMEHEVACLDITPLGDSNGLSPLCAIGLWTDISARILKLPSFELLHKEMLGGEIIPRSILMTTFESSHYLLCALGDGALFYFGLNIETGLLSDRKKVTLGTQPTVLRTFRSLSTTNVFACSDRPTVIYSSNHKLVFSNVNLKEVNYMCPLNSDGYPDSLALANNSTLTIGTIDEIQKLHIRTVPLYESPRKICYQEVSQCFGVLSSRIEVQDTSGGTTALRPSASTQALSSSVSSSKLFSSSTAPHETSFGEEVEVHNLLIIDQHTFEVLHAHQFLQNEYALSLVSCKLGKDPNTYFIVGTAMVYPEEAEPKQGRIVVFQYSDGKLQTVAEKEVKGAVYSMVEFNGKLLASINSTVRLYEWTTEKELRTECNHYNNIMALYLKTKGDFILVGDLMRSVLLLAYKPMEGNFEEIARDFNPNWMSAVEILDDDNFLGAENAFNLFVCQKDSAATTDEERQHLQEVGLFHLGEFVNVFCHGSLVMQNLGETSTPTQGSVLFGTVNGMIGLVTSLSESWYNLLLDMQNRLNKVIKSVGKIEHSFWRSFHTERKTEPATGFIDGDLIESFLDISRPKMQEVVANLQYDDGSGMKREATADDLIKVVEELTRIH

| Molecule | IC50 (CRBN/DDB1) [nM] | IC50 (ERα_LBD (GST)) [nM] | Dmax (ER in MCF-7 cells; [1]) [%] | DC50 (ER in MCF-7 cells; 16 hrs treatment) [nM] | DC50 (ER in T47D cells; 16 hrs treatment) [nM] | Dmax (ER in T47D cells; [2]) [%] | IC50 (MCF-7 cells; [3]) [nM] | Dmax (ER in MCF-7 cells; [4]) [%] | Dmax (ER in T47D cells; [5]) [%] | MCF7 Dmax (ER in MCF-7 cells; MCF-7, maximal ER degradation, 16 hrs treatment) | IC50 (MCF-7 cells; Day 6, read-out: MCF7 IC50) [nM] |
| --- | --- | --- | --- | --- | --- | --- | --- | --- | --- | --- | --- |
| O=C1CC[C@H](N2Cc3c(ccc4c3OC[C@H]3CN(C[C@H]5COC6(C5)CN(c5ccc([C@@H]7c8ccc(O)cc8CC[C@@H]7c7ccccc7)cc5)C6)CCN43)C2=O)C(=O)N1 (single isomer, unassigned) [Compound A68] | < 50 | < 10 | 50 to 75 | < 1 | < 1 | > 75 | 10 to 100 | – | – | – | – |
| COc1cc(N2CCC(CN3CCN4c5ccc6c(c5OC[C@@H]4C3)CN([C@@H]3CCC(=O)NC3=O)C6=O)CC2)ccc1[C@H]1c2ccc(O)cc2CC[C@H]1c1ccccc1 (stereo in doubt) [Compound A24, (R)-3-((S)-7-((1-(4-((1R,2R)-6-hydroxy-2-phenyl-1,2,3,4-tetrahydronaphthalen-1-yl)-3-methoxyphenyl)piperidin-4-yl)methyl)-1-oxo-1,3,5,5a,6,7,8,9-oCtahydro-2H-pyrazino [1′,2′:4,5][1,4]oxazino[2,3-e]isoindol-2-yl)piperidine-2,6-dione] | 50 to 500 | < 10 | > 75 | < 1 | < 1 | > 75 | 10 to 100 | – | – | – | – |
| O=C1CC[C@H](N2Cc3cc4c(cc3C2=O)OCC42CCN(C[C@@H]3COC4(CCN(c5ccc([C@H]6c7ccc(O)cc7CC[C@H]6c6ccccc6)cc5)CC4)C3)CC2)C(=O)N1 [Compound A25, (S)-3-(1′-(((R)-8-(4-((1S,2R)-6-hydroxy-2-phenyl-1,2,3,4-tetrahydronaphthalen-1-yl)phenyl)-1-oxa-8-azaspiro[4.5]decan-3-yl)methyl)-7-oxo-5,7-dihydro-2H,6H-spiro[furo[2,3-f]isoindole-3,4′-piperidin]-6-yl)piperidine-2,6-dione] | – | < 10 | – | < 1 | < 1 | – | < 10 | > 75 | > 75 | – | – |
| COc1cc(N2CCC3(CC2)CC(CN2CCC4(CC2)COc2c4ccc4c2CN([C@H]2CCC(=O)NC2=O)C4=O)CO3)ccc1[C@H]1c2ccc(O)cc2CC[C@H]1c1ccccc1 (stereo partly drawn) [Compound A54, (3S)-3-(1′-((8-(4-((1R,2R)-6-hydroxy-2-phenyl-1,2,3,4-tetrahydronaphthalen-1-yl)-3-methoxyphenyl)-1-oxa-8-azaspiro[4.5]decan-3-yl)methyl)-6-oxo-6,8-dihydro-2H,7H-spiro[furo[2,3-e]isoindole-3,4′-piperidin]-7-yl)piperidine-2,6-dione] | < 50 | < 10 | – | < 1 | < 1 | – | – | 50 to 75 | > 75 | – | – |
| O=C1CC[C@H](N2Cc3c(ccc4c3OC[C@H]3CN(CC5CCN(c6ccc([C@@H]7c8ccc(O)cc8CC[C@@H]7c7ccccc7)cc6)CC5)CCN43)C2=O)C(=O)N1 [Compound A71, (S)-3-((R)-7-((1-(4-((1R,2S)-6-hydroxy-2-phenyl-1,2,3,4-tetra-hydronaphthalen-1-yl)phenyl)-piperidin-4-yl)methyl)-1-oxo-1,3,5,5a,6,7,8,9-octahydro-2H-pyrazino[1′,2′:4,5][1,4]oxazino [2,3-e]isoindol-2-yl)piperidine-2,6-dione] | 50 to 500 | < 10 | > 75 | < 1 | – | – | < 10 | – | – | – | – |
| O=C1CC[C@H](N2Cc3cc4c(cc3C2=O)OC[C@@H]2CN(C[C@H]3COC5(C3)CN(c3ccc([C@@H]6c7ccc(O)cc7CC[C@@H]6c6ccccc6)cc3)C5)CCN42)C(=O)N1 [Compound A72, (S)-3-((S)-3-(((S)-2-(4-((1R, 2S)-6-hydroxy-2-phenyl-1,2,3,4-tetrahydronaphthalen-1-yl)phenyl)-5-oxa-2-azaspiro [3.4]octan-7-yl)methyl)-8-oxo-1,2,3,4,4a,5,8,10-octahydro-9H-pyrazino[1′,2′:4,5][1,4]oxazino[2,3-f]isoindol-9-yl)-piperidine-2,6-dione] | 50 to 500 | < 10 | 50 to 75 | < 1 | < 1 | > 75 | < 10 | – | – | – | – |
| COc1cc(N2CCC(CN3CCN4c5ccc(C(=O)N[C@H]6CCC(=O)NC6=O)nc5OC[C@H]4C3)CC2)c(F)cc1[C@@H]1c2ccc(O)cc2CC[C@@H]1c1ccccc1 [Compound A94, (R)-N-((S)-2,6-dioxopiperidin-3-yl)-3-((1-(2-fluoro-4-((1S,2S)-6-hydroxy-2-phenyl-1,2,3,4-tetrahydronaphthalen-1-yl)-5-methoxyphenyl)piperidin-4-yl)methyl)-1,2,3,4,4a,5-hexahydropyrazino[1,2-d]pyrido[2,3-b][1,4]oxazine-8-carboxamide] | > 5000 | < 10 | > 75 | < 1 | < 1 | > 75 | – | – | – | – | – |
| COc1cc(N2CCC3(CC2)CC(CN2CCC4(CC2)COc2c4ccc4c2CN([C@H]2CCC(=O)NC2=O)C4=O)C3)ccc1[C@@H]1c2ccc(O)cc2CC[C@@H]1c1ccccc1 [Compound A95, (S)-3-(1′-((7-(4-((1S,2S)-6-hydroxy-2-phenyl-1,2,3,4-tetra-hydronaphthalen-1-yl)-3-meth-oxyphenyl)-7-azaspiro[3.5]nonan-2-yl)methyl)-6-oxo-6,8-dihydro-2H,7H-spiro[furo[2,3-e]isoindole-3,4′-piperidin]-7-yl)piperidine-2,6-dione] | < 50 | < 10 | – | < 1 | < 1 | – | – | > 75 | > 75 | – | – |
| O=C1CC[C@H](N2Cc3c(ccc4c3OCC43CCN(CC4CC5(CCN(c6ccc([C@@H]7c8ccc(O)cc8CC[C@@H]7c7ccccc7)cn6)CC5)C4)CC3)C2=O)C(=O)N1 [Compound A116, (S)-3-(1′-((7-(5-((1S,2S)-6-hydroxy-2-phenyl-1,2,3,4-tetra-hydronaphthalen-1-yl)pyridin-2-yl)-7-azaspiro[3.5]nonan-2-yl)methyl)-6-oxo-6,8-dihydro-2H,7H-spiro[furo[2,3-e]iso-indole-3,4′-piperidin]-7-yl)-piperidine-2,6-dione] | < 50 | < 10 | – | < 1 | < 1 | – | – | 50 to 75 | > 75 | – | – |
| O=C1CC[C@H](N2Cc3c(ccc4c3OCC43CCN(CC4CCC5(CC4)CN(c4ncc([C@@H]6c7ccc(O)cc7CC[C@@H]6c6ccccc6)cn4)C5)CC3)C2=O)C(=O)N1 [Compound A154, (S)-3-(1′-((2-(5-((1S,2S)-6-hydroxy-2-phenyl-1,2,3,4-tetrahydronaphthalen-1-yl)pyrimidin-2-yl)-2-azaspiro[3.5]nonan-7-yl)methyl)-6-oxo-6,8-dihydro-2H,7H-spiro[furo[2,3-e]isoindole-3,4′-piperidin]-7-yl)piperidine-2,6-dione] | < 50 | < 10 | – | < 1 | < 1 | – | – | 50 to 75 | > 75 | – | – |
| (S)-3-(1′-(((S)-2-(4-((1R,2S)-6- hydroxy-2-phenyl-1,2,3,4- tetrahydronaphthalen-1- yl)phenyl)-5-oxa-2- azaspiro[3.4]octan-7-yl)methyl)- 7-oxo-5,7-dihydro-2H,6H- spiro[furo[2,3-f]isoindole-3,4′- piperidin]-6-yl)piperidine-2,6- dione [Compound A76] | 50 to 500 | < 10 | – | < 1 | – | – | – | – | – | A (“A”: >=75%) | < 10 |
